Test results reported in patent US8697868B2, “8-[3-amino-piperidin-1-yl]-xanthines, their preparation and their use as pharmaceutical compositions” (Boehringer Ingelheim International GmbH, priority 2004, dated 2014).

System: not given
Assay: not given
Settings: not given

Compound	melting point
CC#CCn1c(N2CCC[C@@H](N)C2)nc2c1c(=O)n(Cc1ccccc1)c(=O)n2C [Example 1(43), 1-benzyl-3-methyl-7-(2-butyn-1-yl)-8-((R)-3-amino-piperidin-1-yl)-xanthine]	207 to 209 °C
CC#CCn1c(N2CCC[C@@H](N)C2)nc2c1c(=O)n(Cc1nc(C)cc(C)n1)c(=O)n2C [Example 1(82), 1-[(4,6-dimethyl-pyrimidin-2-yl)methyl]-3-methyl-7-(2-butyn-1-yl)-8-((R)-3-amino-piperidin-1-yl)-xanthine]	202 to 204 °C
CC#CCn1c(N2CCC[C@@H](N)C2)nc2c1c(=O)n(Cc1cnccc1C#N)c(=O)n2C [Example 1(102), 1-[(4-cyano-pyridin-3-yl)methyl]-3-methyl-7-(2-butyn-1-yl)-8-((R)-3-amino-piperidin-1-yl)-xanthine]	166 °C

System: rats
Assay: Tolerability after oral administration in rats
Assay type: in vivo
Settings: oral administration of 10 mg/kg

Compound	toxic side effects
CC#CCn1c(N2CCC[C@@H](N)C2)nc2c1c(=O)n(Cc1nc3ccccc3cc1C#N)c(=O)n2C [Example 1(30), 1-[(3-cyano-quinolin-2-yl)methyl]-3-methyl-7-(2-butyn-1-yl)-8-((R)-3-amino-piperidin-1-yl)-xanthine]	no toxic side effects could be detected

Target: DPP-IV (Homo sapiens (Human), UniProt P27487)
Assay: DPP-IV assay with Caco-2 cell extract as DPP IV source
Assay type: biochemical
Settings: extract of human colon carcinoma cell line Caco-2 as DPP IV source; AFC substrate 100 μM; 60 minutes at ambient temperature; read-out: DPP IV inhibition IC50
Experimental: The differentiation of the cells in order to induce the DPP-IV expression was carried out in accordance with the description by Reiher et al. in an article entitled “Increased expression of intestinal cell line Caco-2” that appeared in Proc. Natl. Acad. Sci. Vol. 90, pp. 5757-5761 (1993). The cell extract was obtained from cells solubilized in a buffer (10 mM Tris HCl, 0.15 M NaCl, 0.04 t.i.u. aprotinin, 0.5% Nonidet-P40, pH 8.0) by centrifugation at 35,000 g for 30 minutes at 4° C. (to remove cell debris).
The DPP-IV assay was carried out as follows:
50 μl of substrate solution (AFC; AFC is amido-4-trifluoromethylcoumarin), final concentration 100 μM, was placed in black microtitre plates. 20 μl of assay buffer (final concentrations 50 mM Tris HCl pH 7.8, 50 mM NaCl, 1% DMSO) was pipetted therein. The reaction was started by the addition of 30 μl of solubilized Caco-2 protein (final concentration 0.14 μg of protein per well). The test substances under investigation were typically added prediluted to 20 μl, while the volume of assay buffer was then reduced accordingly. The reaction was carried out at ambient temperature, the incubation period was 60 minutes. Then the fluorescence was measured in a Victor 1420 Multilabel Counter, with the excitation wavelength at 405 nm and the emission wavelength at 535 nm. Dummy values (corresponding to 0% activity) were obtained in mixtures with no Caco-2 protein (volume replaced by assay buffer), control values (corresponding to 100% activity) were obtained in mixtures without any added substance. The potency of the test substances in question, expressed as IC50 values, were calculated from dosage/activity curves consisting of 11 measured points in each case.

DPP-IV, sequence (P27487 whole entry): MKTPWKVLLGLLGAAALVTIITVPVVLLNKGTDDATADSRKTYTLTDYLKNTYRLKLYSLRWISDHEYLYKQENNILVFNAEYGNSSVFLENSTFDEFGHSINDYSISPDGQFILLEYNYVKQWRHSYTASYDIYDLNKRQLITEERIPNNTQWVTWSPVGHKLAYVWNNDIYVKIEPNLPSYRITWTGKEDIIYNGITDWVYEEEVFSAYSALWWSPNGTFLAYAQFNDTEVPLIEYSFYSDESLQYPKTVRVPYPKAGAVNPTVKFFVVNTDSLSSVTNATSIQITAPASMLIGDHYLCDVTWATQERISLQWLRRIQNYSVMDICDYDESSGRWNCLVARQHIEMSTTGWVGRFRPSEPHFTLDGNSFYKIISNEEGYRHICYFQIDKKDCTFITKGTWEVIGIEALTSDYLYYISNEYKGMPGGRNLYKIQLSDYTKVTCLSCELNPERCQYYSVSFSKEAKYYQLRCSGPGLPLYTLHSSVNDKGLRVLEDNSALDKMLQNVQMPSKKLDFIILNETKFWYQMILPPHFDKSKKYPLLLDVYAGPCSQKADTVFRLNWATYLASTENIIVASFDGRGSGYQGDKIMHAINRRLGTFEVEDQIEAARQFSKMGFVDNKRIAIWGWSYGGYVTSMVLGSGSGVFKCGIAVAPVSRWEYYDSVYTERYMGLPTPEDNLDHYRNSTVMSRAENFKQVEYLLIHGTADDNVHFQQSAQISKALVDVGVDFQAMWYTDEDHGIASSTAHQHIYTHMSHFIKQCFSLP

Compound	IC50
CC#CCn1c(N2CCC[C@@H](N)C2)nc2c1c(=O)n(Cc1cc(C#N)cc3ccccc13)c(=O)n2C [1(3), 1-[(3-cyano-naphthalen-1-yl)methyl]-3-methyl-7-(2-butyn-1-yl)-8-((R)-3-amino-piperidin-1-yl)-xanthine]	6 nM
CC#CCn1c(N2CCC[C@@H](N)C2)nc2c1c(=O)n(Cc1nc(-c3ccccc3)nc3ccccc13)c(=O)n2C [1(4), 1-[(2-phenyl-quinazolin-4-yl)methyl]-3-methyl-7-(2-butyn-1-yl)-8-((R)-3-amino-piperidin-1-yl)-xanthine]	9 nM
CC#CCn1c(N2CCC[C@@H](N)C2)nc2c1c(=O)n(Cc1cc(C#N)c3ccccc3n1)c(=O)n2C [1(6), 1-[(4-cyano-quinolin-2-yl)methyl]-3-methyl-7-(2-butyn-1-yl)-8-((R)-3-amino-piperidin-1-yl)-xanthine]	2 nM
CC#CCn1c(N2CCC[C@@H](N)C2)nc2c1c(=O)n(CC(=O)c1cccc(OC3CC3)c1)c(=O)n2C [1(7), 1-[2-(3-cyclopropyloxy-phenyl)-2-oxo-ethyl]-3-methyl-7-(2-butyn-1-yl)-8-((R)-3-amino-piperidin-1-yl)-xanthine]	5 nM
CC#CCn1c(N2CCC[C@@H](N)C2)nc2c1c(=O)n(Cc1ccc3nc(C)c(C)nc3c1)c(=O)n2C [1(12), 1-[(2,3-dimethyl-quinoxalin-6-yl)methyl]-3-methyl-7-(2-butyn-1-yl)-8-((R)-3-amino-piperidin-1-yl)-xanthine]	2 nM
CC#CCn1c(N2CCC[C@@H](N)C2)nc2c1c(=O)n(CC(=O)c1ccccc1-c1cccnc1)c(=O)n2C [1(21), 1-{2-oxo-2-[2-(pyridin-3-yl)-phenyl]-ethyl}-3-methyl-7-(2-butyn-1-yl)-8-((R)-3-amino-piperidin-1-yl)-xanthine]	2 nM
CC#CCn1c(N2CCC[C@@H](N)C2)nc2c1c(=O)n(Cc1cnc3cccnc3c1)c(=O)n2C [1(26), 1-[([1,5]naphthyridin-3-yl)methyl]-3-methyl-7-(2-butyn-1-yl)-8-((R)-3-amino-piperidin-1-yl)-xanthine]	2 nM
CC#CCn1c(N2CCC[C@@H](N)C2)nc2c1c(=O)n(Cc1nccc(-c3ccccc3)n1)c(=O)n2C [1(31), 1-[(4-phenyl-pyrimidin-2-yl)methyl]-3-methyl-7-(2-butyn-1-yl)-8-((R)-3-amino-piperidin-1-yl)-xanthine]	3 nM
CC#CCn1c(N2CCC[C@@H](N)C2)nc2c1c(=O)n(Cc1ccc3cncnc3c1)c(=O)n2C [1(38), 1-[(quinazolin-7-yl)methyl]-3-methyl-7-(2-butyn-1-yl)-8-((R)-3-amino-piperidin-1-yl)-xanthine]	1 nM
CC#CCn1c(N2CCC[C@@H](N)C2)nc2c1c(=O)n(Cc1ccccc1C#N)c(=O)n2C [1(39), 1-(2-cyano-benzyl)-3-methyl-7-(2-butyn-1-yl)-8-((R)-3-amino-piperidin-1-yl)-xanthine]	2 nM
CC#CCn1c(N2CCC[C@@H](N)C2)nc2c1c(=O)n(Cc1nc3ccccc3cc1C#N)c(=O)n2C [Example 1(30), 1-[(3-cyano-quinolin-2-yl)methyl]-3-methyl-7-(2-butyn-1-yl)-8-((R)-3-amino-piperidin-1-yl)-xanthine]	2 nM
CC#CCn1c(N2CCCC(N)C2)nc2c1c(=O)n(Cc1nc(Nc3ccccc3)c3ccccc3n1)c(=O)n2C (stereo not shown) [Example 1, 1-[(4-phenylamino-quinazolin-2-yl)methyl]-3-methyl-7-(2-butyn-1-yl)-8-(3-amino-piperidin-1-yl)-xanthine]	6 nM
